Experimental data from US20140057895A1, “INDAZOLE- AND PYRROLOPYRIDINE-DERIVATIVE AND PHARMACEUTICAL USE THEREOF” (priority 2011, published 2014).
pEC50, pIC50: −log10 of the molar value. Where a name gives a salt, the structure may show the parent alone. Read-outs that look alike come from different tables or passages of the source.

Columns and labels:
[1] = biological target: T1, Human 5-HT4 receptor (5-HT4b) (Homo sapiens, UniProt Q13639); assay: Test Example 3: Human 5-HT4 receptor binding assay, membranes of CHO-K1 cells stably expressing 5-HT4b receptors (Table 99); settings: mean value of each group
T1 construct: expressed in transfected cells; membrane preparation
T1 sequence (Q13639 whole entry): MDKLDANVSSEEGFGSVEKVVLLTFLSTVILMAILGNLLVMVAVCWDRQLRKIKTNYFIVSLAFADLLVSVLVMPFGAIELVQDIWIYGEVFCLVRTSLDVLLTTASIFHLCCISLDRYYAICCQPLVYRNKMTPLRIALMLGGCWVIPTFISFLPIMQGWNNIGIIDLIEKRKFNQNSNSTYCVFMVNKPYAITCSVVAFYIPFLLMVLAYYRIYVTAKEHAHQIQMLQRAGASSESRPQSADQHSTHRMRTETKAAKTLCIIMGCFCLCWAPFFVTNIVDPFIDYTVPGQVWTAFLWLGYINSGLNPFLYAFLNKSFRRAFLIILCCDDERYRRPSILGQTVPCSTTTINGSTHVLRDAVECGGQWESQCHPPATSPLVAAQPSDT
Protocol: To an assay tube were added 0.1 nM [^3H]-GR113808 {chemical name: [1-[2-(methylsulfonylamino) ethyl]-4-piperidinyl]methyl 1-methylindole-3-carboxylate}, receptor membrane preparations, and Hepes buffer (50 mM, pH 7.4, 4° C., 1 ml) containing test compounds or 30 μM serotonin; and the mixture was incubated at 37° C. for 30 minutes. On quenching the reaction, the mixture was rapidly filtered on whatman GF/B filter, which was presoaked in 0.1% polyethyleneimine for 1 hour, by using Brandel cell Harvester, and washed with ice-cooled 50 mM Tris-HCl (pH 7.7, 4 ml) three times. To the filter after filtration was added a liquid scintillator (Ecoscint), and then a radioactivity was determined by a liquid scintillation counter.
50% Inhibition concentrations (IC50) were determined from inhibition rates of test compounds to specific bindings which were obtained by subtracting nonspecific bindings from total binding amounts of [^3H]-GR113808.
Human 5-HT4 receptor membrane preparations were prepared from CHO-K^1 cells which stably express 5-HT4b receptors, and human 5-HT4 receptor binding assay was carried out in a similar manner as in the guinea pig 5-HT4 receptor binding assay. The following tables show results of serotonin 4 (5-HT4) receptor binding assay. In the following tables, the compounds used in the test are shown in numbers which correspond to the Example numbers above where the preparations of the compounds are described.

5-HT4 receptor = biological target: T2, 5-HT4 receptor (Cavia porcellus, UniProt O70528); assay: Test Example 3: Guinea pig 5-HT4 receptor binding assay, [3H]-GR113808, striatum membranes (Table 98)
T2 construct: striatum was isolated which was cryopreserved at −80° C. until use; from tissue; host or cells: guinea pig (Slc-Hartley) striatum membranes
T2 sequence (O70528 whole entry): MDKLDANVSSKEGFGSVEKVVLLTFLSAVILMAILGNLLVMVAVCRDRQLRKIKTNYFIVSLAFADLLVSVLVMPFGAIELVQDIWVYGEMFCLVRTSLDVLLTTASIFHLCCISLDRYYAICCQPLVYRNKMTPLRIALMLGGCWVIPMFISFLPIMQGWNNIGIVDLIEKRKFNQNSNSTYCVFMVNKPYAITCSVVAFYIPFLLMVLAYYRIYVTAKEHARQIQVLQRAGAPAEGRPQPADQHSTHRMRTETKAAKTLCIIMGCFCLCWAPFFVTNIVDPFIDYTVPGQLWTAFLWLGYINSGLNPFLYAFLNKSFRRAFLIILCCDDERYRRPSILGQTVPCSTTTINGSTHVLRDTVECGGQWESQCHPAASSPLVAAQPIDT
In short: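 Striatal membranes from Slc-Hartley guinea pigs were incubated with 0.1 nM [3H]-GR113808 and test compounds in 50 mM Hepes pH 7.4 at 37° C for 30 min; nonspecific binding was defined with 30 μM serotonin. Bound radioactivity was collected by filtration, and IC50 was derived from inhibition of specific binding.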

human 5-HT4b receptor = biological target: T3, human 5-HT4b receptor (Homo sapiens, UniProt Q13639); assay: Test Example 4: Serotonin 4 (5-HT4) receptor agonist activity assay, cAMP HTRF in CHO cells (Table 100); type: cell-based; settings: mean value; for Emax: CHO, 0.25 h, intrinsic activity, maximal activity of 5-HT defined as 100%, read-out: IA (%); for pEC50: concentration showing 50% of IA
T3 construct: expressed in transfected cells; host or cells: CHO cells (G418 selection)
T3 sequence (Q13639 whole entry): as the sequence (Q13639 whole entry) above
Protocol: The cAMP measurement test used herein was carried out by using CISBIO HTRF (trademark) cAMP Hirange kit according to the manufacturer's instructions attached therewith.
CHO cells expressing human 5-HT4b receptor were incubated in Medium 1 [DMEM/1% NEAA, 1% penicillin/streptomycin (P/S), 0.2 mg/mL GENETICIN (G418), 10% FBS] at 37° C. under 5% CO2 condition. Then, the cells were put into Medium 2 (DMEM/10000 cut FBS, G-418, P/S, NEAA) for 1 to 2 hours, and collected by treating with trypsin containing EDTA. The collected cells were suspended in Assay Buffer 1 [100 mM Hanks/HEPES buffer (pH 7.4)], the suspended cells were mixed with the testing compound on 384-well plates, and the cells were incubated at 31° C. for 15 minutes. To the cells were added cAMP-cryptate solution and cAMP-d2 solution, and they were incubated at room temperature for 1 hour. Then, time-resolved fluorescence was measured by En Vision (excitation wavelength: 330 nm, fluorescence wavelength: 620/665 nm).
An intrinsic activity of the compound [IA (%)] and a concentration showing 50% of IA [EC50 (nM)] were calculated from the obtained results. In particular, the intrinsic activity (IA) was calculated on the basis of the maximal activity of 5-HT (measured from 10^−11 M to 10^−7 M) defined as 100%.
In the following table, the compounds used in the test are shown in numbers which correspond to the Example numbers above where the preparations of the compounds are described.

[2] = Guinea pig 5-HT4 receptor binding assay, [3H]-GR113808, striatum membranes, mean value of each group, read-out: IC50

pIC50 [1]	pIC50 (5-HT4 receptor; [2])	Emax (human 5-HT4b receptor) [%]	pEC50 (human 5-HT4b receptor)	Structure (SMILES)	pIC50 (5-HT4 receptor)
7.06	–	–	–	CC(C)c1nn(-c2noc(C3CC(NC4COC4)C3)n2)c2c(F)cccc12 (centres unmarked) [Example 606, N-(3-{3-[7-fluoro-3-(propan-2-yl)-1H-indazol-1-yl]-1,2,4-oxadiazol-5-yl}cyclobutyl)oxetan-3-amine]	–
7.53	–	–	–	CC(C)c1nn(-c2noc(C3CCN(C4C5CCCC4CN(C(=O)CO)C5)CC3)n2)c2c(F)cccc12 (stereo not drawn) [Example 535, 1-[(9-anti)-9-(4-{3-[7-fluoro-3-(propan-2-yl)-1H-indazol-1-yl]-1,2,4-oxadiazol-5-yl}piperidin-1-yl)-3-azabicyclo[3.3.1]non-3-yl]-2-hydroxyethanone]	–
> 7.70	–	–	–	CC(C)c1nn(-c2noc(C3CC(NCCC4CCOC4)C3)n2)c2c(F)cccc12 (centres unmarked) [Example 599, 3-{3-[7-fluoro-3-(propan-2-yl)-1H-indazol-1-yl]-1,2,4-oxadiazol-5-yl}-N-[2-(tetrahydrofuran-3-yl)ethyl]cyclobutanamine]	–
7.57	–	–	–	CC(C)c1nn(-c2noc([C@H]3C[C@@H](NCCC4CCCCO4)C3)n2)c2c(F)cccc12 (relative stereo) [Example 597, cis-3-{3-[7-fluoro-3-(propan-2-yl)-1H-indazol-1-yl]-1,2,4-oxadiazol-5-yl}-N-[2-(tetrahydro-2H-pyran-2-yl)ethyl]cyclobutanamine]	–
7.41	–	–	–	CC(C)c1nn(-c2noc(C3CCC(NCCC4CCCOC4)CC3)n2)c2c(F)cccc12 (centres unmarked) [Example 619, 4-{3-[7-fluoro-3-(propan-2-yl)-1H-indazol-1-yl]-1,2,4-oxadiazol-5-yl}-N-[2-(tetrahydro-2H-pyran-3-yl)ethyl]cyclohexanamine]	–
–	7.09	72.5	8.16	CC(=O)N1CC(CN2CCC(c3nc(-n4nc(C(C)C)c5ccccc54)no3)CC2)C1 [Example 467, 1-{3-[(4-{3-[3-(propan-2-yl)-1H-indazol-1-yl]-1,2,4-oxadiazol-5-yl}piperidin-1-yl)methyl]azetidin-1-yl}ethanone trifluoroacetate]	–
–	7.52	70.4	7.87	CCc1nn(-c2noc(C3CCN(CC4CN(C(=O)OC)C4)CC3)n2)c2c(F)c(F)ccc12 [Example 470, methyl 3-({4-[3-(3-ethyl-6,7-difluoro-1H-indazol-1-yl)-1,2,4-oxadiazol-5-yl]piperidin-1-yl}methyl)azetidine-1-carboxylate trifluoroacetate]	–
–	7.69	89.4	7.46	COC(=O)N1CC(CN2CCC(c3nc(-n4nc(C(C)C)c5ccc(F)c(F)c54)no3)CC2)C1 [Example 474, methyl 3-[(4-{3-[6,7-difluoro-3-(propan-2-yl)-1H-indazol-1-yl]-1,2,4-oxadiazol-5-yl}piperidin-1-yl)methyl]azetidine-1-carboxylate trifluoroacetate]	–
–	> 7.70	82.9	7.75	CC(C)c1nn(-c2noc(C3CCN(C4CCN(C(=O)CO)CC4)CC3)n2)c2c(F)c(F)ccc12 [Example 520, 1-(4-{3-[6,7-difluoro-3-(propan-2-yl)-1H-indazol-1-yl]-1,2,4-oxadiazol-5-yl}-1,4′-bipiperidin-1′-yl)-2-hydroxyethanone]	–
–	7.57	81.1	7.47	CC(C)c1nn(-c2noc(C3CCN(C4CCN(C(=O)CO)CC4)CC3)n2)c2ccccc12 [Example 519]	–
–	> 7.70	97	8.51	CC(C)c1nn(-c2noc(C3CCN(C4CCN(C(=O)CO)CC4C)CC3)n2)c2c(F)cccc12 (centres unmarked) [Example 530, 1-(4-{3-[7-fluoro-3-(propan-2-yl)-1H-indazol-1-yl]-1,2,4-oxadiazol-5-yl}-3′-methyl-1,4′-bipiperidin-1′-yl)-2-hydroxyethanone]	–
–	> 7.70	68.7	7.49	CCc1nn(-c2noc(C3CCN(CC4CCN(C(C)=O)CC4)CC3)n2)c2c(F)c(F)ccc12 [Example 478, 1-[4-({4-[3-(3-ethyl-6,7-difluoro-1H-indazol-1-yl)-1,2,4-oxadiazol-5-yl]piperidin-1-yl}methyl)piperidin-1-yl]ethanone trifluoroacetate]	–

Second part, the molecule before the results:

Structure (SMILES)	pIC50 [1]	pIC50 (5-HT4 receptor; [2])	Emax (human 5-HT4b receptor) [%]	pEC50 (human 5-HT4b receptor)	pIC50 (5-HT4 receptor)
CC(C)c1nn(-c2noc(C3CCN(C(C)(C)C(=O)OC(C)(C)C)CC3)n2)c2c(F)cccc12 [Example 400, tert-butyl 2-(4-{3-[7-fluoro-3-(propan-2-yl)-1H-indazol-1-yl]-1,2,4-oxadiazol-5-yl}piperidin-1-yl)-2-methylpropanoate]	6.65	–	–	–	–
CC(=O)N1CCC(N2CCC(c3nc(-n4nc(C(C)C)c5cccc(F)c54)no3)CC2C)CC1 (centres unmarked) [Example 418, 1-(4-{3-[7-fluoro-3-(propan-2-yl)-1H-indazol-1-yl]-1,2,4-oxadiazol-5-yl}-2-methyl-1,4′-bipiperidin-1′-yl}ethanone]	6.35	–	–	–	–
Cc1cccc2c1c(C(C)C)nn2-c1noc(C2CCN(C3CCC3)CC2)n1 [Example 423, 1-[5-(1-cyclobutylpiperidin-4-yl)-1,2,4-oxadiazol-3-yl]-4-methyl-3-(propan-2-yl)-1H-indazole]	6.87	–	–	–	–
CCc1nn(-c2noc(C3CCN(C4CCOCC4)CC3)n2)c2c(F)c(F)ccc12 [Example 448, 3-ethyl-6,7-difluoro-1-{5-[1-(tetrahydro-2H-pyran-4-yl)piperidin-4-yl]-1,2,4-oxadiazol-3-yl}-1H-indazole trifluoroacetate]	–	> 7.70	57.5	8.05	–
COCC(=O)N1CC(CN2CCC(c3nc(-n4nc(C(C)C)c5cccc(F)c54)no3)CC2)C1 [Example 221, 1-{3-[(4-{3-[7-fluoro-3-(propan-2-yl)-1H-indazol-1-yl]-1,2,4-oxadiazol-5-yl}piperidin-1-yl)methyl]azetidin-1-yl}-2-methoxyethanone hydrochloride]	–	> 7.70	86.1	8.21	–
CCc1nn(-c2noc(C3CCN(C4CCN(S(C)(=O)=O)CC4)CC3)n2)c2c(F)cccc12 [Example 241, 4-[3-(3-ethyl-7-fluoro-1H-indazol-1-yl)-1,2,4-oxadiazol-5-yl]-1′-(methylsulfonyl)-1,4′-bipiperidine]	–	> 7.70	58.8	8.49	–
CCc1nn(-c2noc(C3CCN(C[C@H]4CCN(C(C)=O)C4)CC3)n2)c2c(F)cccc12 [Example 209, 1-[(3R)-3-({4-[3-(3-ethyl-7-fluoro-1H-indazol-1-yl)-1,2,4-oxadiazol-5-yl]piperidin-1-yl}methyl)pyrrolidin-1-yl]ethanone hydrochloride]	–	> 7.70	79.1	8.43	–
COc1ccc(F)c2c1c(C(C)C)nn2-c1noc(C2CCN(C3CCN(C(C)=O)CC3)CC2)n1 [Example 405, 1-(4-{3-[7-fluoro-4-methoxy-3-(propan-2-yl)-1H-indazol-1-yl]-1,2,4-oxadiazol-5-yl}-1,4′-bipiperidin-1′-yl)ethanone]	–	7.18	21.6	7.47	–
CC(C)c1nn(-c2noc(C3CCN(C(C)(C)CO)CC3)n2)c2c(F)cccc12 [Example 402, 2-(4-{3-[7-fluoro-3-(propan-2-yl)-1-indazol-1-yl]-1,2,4-oxadiazol-5-yl}piperidin-1-yl)-2-methylpropan-1-ol]	–	> 7.70	106	8.74	–
CC(C)c1nn(-c2noc(C3CCN([C@H]4C[C@H]5CC[C@@H](C4)N5C(=O)CO)CC3)n2)c2c(F)cccc12 [Example 532, 1-[(3-endo)-3-(4-{3-[7-fluoro-3-(propan-2-yl)-1H-indazol-1-yl]-1,2,4-oxadiazol-5-yl}piperidin-1-yl)-8-azabicyclo[3.2.1]oct-8-yl]-2-hydroxyethanone]	–	–	99	8.30	> 7.70
